Reference: patent US20120101100A1 (priority 2008, published 2012)
Where a name gives a salt, the structure may show the parent alone.

Target: S. aureus GyrB ATPase (Staphylococcus aureus, UniProt P0A0K8)
Assay: S. aureus (SAU) GyrB ATPase inhibition, malachite green phosphate detection (E. coli GyrA + S. aureus GyrB)
Format: biochemical
Conditions: compound concentration of 1.0 μM unless otherwise noted; average value where assay was carried out more than once; read-out: S. aureus (SAU) GyrB ATPase % Inhibition
Procedure: Compounds were tested for inhibition of GyrB ATPase activity using an ammonium molybdate/malachite green-based phosphate detection assay (Lanzetta, P. A., L. J. Alvarez, P. S. Reinach, and O. A. Candia, 1979, 100: 95-97). Assays were performed in multiwell plates in 100 μl reactions containing: 50 mM Hepes buffer pH 7.5, 75 mM ammonium acetate, 8.0 mM magnesium chloride, 1.0 mM ethylenediaminetetraacetic acid, 5% glycerol, 2 mM 1,4-Dithio-DL-threitol, 400 nM bovine serum albumin, 5 μg/ml sheared salmon sperm DNA, 1.25 nM E. coli GyrA, 1.25 nM S. aureus GyrB, 500 μM ATP, and compound in dimethylsulfoxide. Reactions were quenched with 150 μl of ammonium molybdate/malachite green detection reagent containing 1.2 mM malachite green hydrochloride, 8.5 mM ammonium molybdate tetrahydrate, and 1 M hydrochloric acid. Plates were read in an absorbance plate reader at 650 nm and percent inhibition values were calculated using dimethylsulfoxide (2%)-containing reactions as 0% inhibition and novobiocin-containing (2 μM) reactions as 100% inhibition controls. Compound potency was based on IC50 measurements determined from reactions performed in the presence of 10 different compound concentrations.

S. aureus GyrB ATPase, sequence (P0A0K8 whole entry): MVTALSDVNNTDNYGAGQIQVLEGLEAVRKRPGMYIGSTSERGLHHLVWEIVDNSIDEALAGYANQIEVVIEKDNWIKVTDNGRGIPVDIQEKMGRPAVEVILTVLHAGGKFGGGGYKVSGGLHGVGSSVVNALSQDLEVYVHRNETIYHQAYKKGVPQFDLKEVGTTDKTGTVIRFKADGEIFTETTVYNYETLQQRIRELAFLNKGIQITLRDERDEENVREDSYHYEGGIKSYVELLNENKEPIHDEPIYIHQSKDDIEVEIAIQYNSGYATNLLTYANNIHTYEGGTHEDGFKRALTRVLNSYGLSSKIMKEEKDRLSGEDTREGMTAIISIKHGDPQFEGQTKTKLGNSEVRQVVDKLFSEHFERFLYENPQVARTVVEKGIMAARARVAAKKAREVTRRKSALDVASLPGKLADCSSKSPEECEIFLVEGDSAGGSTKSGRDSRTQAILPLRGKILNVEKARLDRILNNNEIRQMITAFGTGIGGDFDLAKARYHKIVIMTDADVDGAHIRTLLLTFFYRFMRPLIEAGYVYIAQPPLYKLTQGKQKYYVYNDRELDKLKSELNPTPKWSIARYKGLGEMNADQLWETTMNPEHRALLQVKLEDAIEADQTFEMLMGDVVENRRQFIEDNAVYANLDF
S. aureus GyrB ATPase, sequence (P0AES4 whole entry, further chain): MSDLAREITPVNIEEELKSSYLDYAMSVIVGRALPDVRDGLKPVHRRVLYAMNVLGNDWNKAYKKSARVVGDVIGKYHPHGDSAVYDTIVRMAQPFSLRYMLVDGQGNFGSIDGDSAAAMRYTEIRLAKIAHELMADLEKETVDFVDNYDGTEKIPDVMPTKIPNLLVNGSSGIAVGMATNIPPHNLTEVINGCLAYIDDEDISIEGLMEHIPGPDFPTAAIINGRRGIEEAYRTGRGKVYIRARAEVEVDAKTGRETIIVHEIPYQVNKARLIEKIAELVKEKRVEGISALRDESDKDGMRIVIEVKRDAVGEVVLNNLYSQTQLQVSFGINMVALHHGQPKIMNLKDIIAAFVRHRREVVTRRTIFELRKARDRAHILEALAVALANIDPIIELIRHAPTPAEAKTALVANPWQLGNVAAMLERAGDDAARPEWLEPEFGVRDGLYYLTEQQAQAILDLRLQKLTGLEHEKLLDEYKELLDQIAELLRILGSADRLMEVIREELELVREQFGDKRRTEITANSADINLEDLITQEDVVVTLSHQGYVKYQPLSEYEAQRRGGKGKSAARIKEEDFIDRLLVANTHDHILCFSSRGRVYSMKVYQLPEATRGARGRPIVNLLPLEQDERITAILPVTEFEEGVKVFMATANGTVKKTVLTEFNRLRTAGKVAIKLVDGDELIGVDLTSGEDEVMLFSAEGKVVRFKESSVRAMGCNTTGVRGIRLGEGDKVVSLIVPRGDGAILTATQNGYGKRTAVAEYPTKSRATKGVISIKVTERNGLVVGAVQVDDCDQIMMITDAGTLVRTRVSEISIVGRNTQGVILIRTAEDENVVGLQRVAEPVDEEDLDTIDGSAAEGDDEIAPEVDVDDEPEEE

Question: For `CCNC(=O)Nc1cc(-c2nc(C(F)(F)F)cs2)c(-c2cncc(-c3nnc(NCCCN(C)C)o3)c2)cn1` [Example 152, 1-(5′-(5-(3-(Dimethylamino)propylamino)-1,3,4-oxadiazol-2-yl)-4-(4-(trifluoromethyl)thiazol-2-yl)-3,3′-bipyridin-6-yl)-3-ethylurea], which inhibition at 1 µM is on record?
Answer: 95%

Question: With `CCNC(=O)Nc1cc(-c2nc(C(F)(F)F)cs2)c(-c2cc(-c3n[nH]c(=O)o3)cnc2OC2CCN(C)CC2)cn1` [Example 215] as the molecule, how does the inhibition at 1 µM read?
Answer: 96%

Question: Which inhibition at 1 µM does the source give for `CCNC(=O)Nc1cc(-c2nc(C(F)(F)F)cs2)c(-c2cncc(-c3cnn(C)c3)c2)cn1` [Example 24, 1-Ethyl-3-(5′-(1-methyl-1H-pyrazol-4-yl)-4-(4-(trifluoromethyl)thiazol-2-yl)-3,3′-bipyridin-6-yl)urea] here?
Answer: 109%

Question: For `CCNC(=O)Nc1cc(-c2nc(C(F)(F)F)cs2)c(-c2cncc(-c3nnc(CC(C)=O)o3)c2)cn1` [Example 265, 1-ethyl-3-(5′-(5-(2-oxopropyl)-1,3,4-oxadiazol-2-yl)-4-(4-(trifluoromethyl)thiazol-2-yl)-3,3′-bipyridin-6-yl)urea], which inhibition at 1 µM is on record?
Answer: 101%

Question: `CCNC(=O)Nc1cc(-c2nc(C(F)(F)F)cs2)c(-c2cc(OC3CCN(C)CC3)nc(-c3n[nH]c(=O)o3)c2)cn1` [Example 90, 1-ethyl-3-(2′-(1-methylpiperidin-4-yloxy)-6′-(5-oxo-4,5-dihydro-1,3,4-oxadiazol-2-yl)-4-(4-(trifluoromethyl)thiazol-2-yl)-3,4′-bipyridin-6-yl)urea] was tested. Which inhibition at 1 µM did it give?
Answer: 116%

Question: `CCNC(=O)Nc1cc(-c2nc(C(F)(F)F)c(CNCCN3CCOCC3)s2)c(-c2cncc(-c3nnc(C)o3)c2)cn1` [Example 55, 1-ethyl-3-(5′-(5-methyl-1,3,4-oxadiazol-2-yl)-4-(5-((2-morpholinoethylamino)methyl)-4-(trifluoromethyl)thiazol-2-yl)-3,3′-bipyridin-6-yl)urea] was tested. Which inhibition at 1 µM did it give?
Answer: 96%

Question: How did the inhibition at 1 µM turn out when `CCNC(=O)Nc1cc(-c2nc(C(F)(F)F)cs2)c(-c2cncc(-c3nnc([C@@H]4COCCN4)o3)c2)cn1` [Example 239, (S)-1-ethyl-3-(5′-(5-(morpholin-3-yl)-1,3,4-oxadiazol-2-yl)-4-(4-(trifluoromethyl)thiazol-2-yl)-3,3′-bipyridin-6-yl)urea] was run?
Answer: 94%

Question: For `CCNC(=O)Nc1cc(-c2nc(C(F)(F)F)cs2)c(-c2cc(-c3nnc(C)o3)c[n+]([O-])c2)cn1` [Example 255, 6′-(3-ethylureido)-5-(5-methyl-1,3,4-oxadiazol-2-yl)-4′-(4-(trifluoromethyl)thiazol-2-yl)-3,3′-bipyridine 1-oxide], which inhibition at 1 µM is on record?
Answer: 98%

Question: How did the inhibition at 1 µM turn out when `CCNC(=O)Nc1cc(-c2nc(C3CCCCC3)cs2)c(-c2cncc(-c3n[nH]c(=O)o3)c2)cn1` [Example 211] was run?
Answer: 109%

Question: Which inhibition at 1 µM does the source give for `CCNC(=O)Nc1cc(-c2nc(C(F)(F)F)cs2)c(-c2cncc(-c3nnc([C@H]4COCCN4)o3)c2)cn1` [Example 240, (R)-1-ethyl-3-(5′-(5-(morpholin-3-yl)-1,3,4-oxadiazol-2-yl)-4-(4-(trifluoromethyl)thiazol-2-yl)-3,3′-bipyridin-6-yl)urea] here?
Answer: 95%

Question: With `CCNC(=O)Nc1cc(-c2nc(C(F)(F)F)cs2)c(-c2cncc(-c3nn(CCO)c(=O)o3)c2)cn1` [Example 162] as the molecule, how does the inhibition at 1 µM read?
Answer: 98%

Question: How did the inhibition at 1 µM turn out when `CCNC(=O)Nc1cc(-c2nc(C(F)(F)F)cs2)c(-c2cc(-c3n[nH]c(=O)o3)cnc2OC2CCCCC2)cn1` [Example 214] was run?
Answer: 109%

Question: `CCNC(=O)Nc1cc(-c2nc(C(F)(F)F)cs2)c(-c2cc(-c3nnc([C@@H](N)C(C)C)o3)cnc2OCCN(CC)CC)cn1` [Example 122, 1-(5′-(5-(1-amino-2-methylpropyl)-1,3,4-oxadiazol-2-yl)-2′-(2-(diethylamino)ethoxy)-4-(4-(trifluoromethyl)thiazol-2-yl)-3,3′-bipyridin-6-yl)-3-ethylurea hydrochloride] was tested. Which inhibition at 1 µM did it give?
Answer: 102%

Question: With `CCNC(=O)Nc1cc(-c2nc(C(F)(F)F)c(C)s2)c(-c2cc(-c3nnc(C)o3)cnc2OC2CCOCC2)cn1` [Example 142] as the molecule, how does the inhibition at 1 µM read?
Answer: 96%

Question: With `CCNC(=O)Nc1cc(-c2nc(C(F)(F)F)cs2)c(-c2cc(-c3nnc(C)o3)cnc2OCC2CC2)cn1` [Example 234, 1-(2′-(cyclopropylmethoxy)-5′-(5-methyl-1,3,4-oxadiazol-2-yl)-4-(4-(trifluoromethyl)thiazol-2-yl)-3,3′-bipyridin-6-yl)-3-ethylurea] as the molecule, how does the inhibition at 1 µM read?
Answer: 105%

Question: With `CCNC(=O)Nc1cc(-c2nc(C(F)(F)F)cs2)c(-c2cncc(-c3ccn[nH]3)c2)cn1` [Example 134] as the molecule, how does the inhibition at 1 µM read?
Answer: 120%

Question: Which inhibition at 1 µM does the source give for `CCNC(=O)Nc1cc(-c2nc(-c3cccnc3OCCOC)cs2)c(-c2cncc(-c3n[nH]c(=O)o3)c2)cn1` [Example 208] here?
Answer: 100%

Question: `CCNC(=O)Nc1cc(-c2nc(-c3cnn(C)c3)cs2)c(-c2cncc(S(N)(=O)=O)c2)cn1` [Example 185] was tested. Which inhibition at 1 µM did it give?
Answer: 99%

Question: `CCNC(=O)Nc1cc(-c2nc(C(F)(F)F)cs2)c(-c2cncc(-c3nnc(C(C)C)o3)c2)cn1` [Example 4] was tested. Which inhibition at 1 µM did it give?
Answer: 99%

Question: Which inhibition at 1 µM does the source give for `CCNC(=O)Nc1cc(-c2nc(C(F)(F)F)cs2)c(-c2cncc(-c3nnc([C@@H](N)C4CCCCC4)o3)c2)cn1` [Example 238, (S)-1-(5′-(5-(amino(cyclohexyl)methyl)-1,3,4-oxadiazol-2-yl)-4-(4-(trifluoromethyl)thiazol-2-yl)-3,3′-bipyridin-6-yl)-3-ethylurea] here?
Answer: 96%

Question: How did the inhibition at 1 µM turn out when `CCNC(=O)Nc1cc(-c2nc(C(F)(F)F)cs2)c(-c2cncc(-c3nnc(N4CCOCC4)o3)c2)cn1` [Example 154] was run?
Answer: 105%

Question: For `CCNC(=O)Nc1cc(-c2nc(C(F)(F)F)cs2)c(-c2cncc(-c3c[nH]c(=O)[nH]c3=O)c2)cn1` [Example 131, 1-(5′-(2,4-Dioxo-1,2,3,4-tetrahydropyrimidin-5-yl)-4-(4-(trifluoromethyl)thiazol-2-yl)-3,3′-bipyridin-6-yl)-3-ethylurea], which inhibition at 1 µM is on record?
Answer: 93%

Question: `CCNC(=O)Nc1cc(C2=NC(OC)(C(F)(F)F)CS2)c(-c2cncc(-c3n[nH]c(=O)o3)c2)cn1` (stereo not shown) [Example 143] was tested. Which inhibition at 1 µM did it give?
Answer: 98%

Question: `CCCNC(=O)Nc1cc(-c2nc(C(F)(F)F)cs2)c(-c2cc(-c3nnc(C)o3)cnc2OC2CCOCC2)cn1` [Example 169, 1-(5′-(5-Methyl-1,3,4-oxadiazol-2-yl)-2′-(tetrahydro-2H-pyran-4-yloxy)-4-(4-(trifluoromethyl)thiazol-2-yl)-3,3′-bipyridin-6-yl)-3-propylurea] was tested. Which inhibition at 1 µM did it give?
Answer: 96%

Question: For `CCNC(=O)Nc1cc(-c2nnc(-c3ccc(F)cc3)o2)c(-c2cncc(-c3n[nH]c(=O)o3)c2)cn1` [Example 198], which inhibition at 1 µM is on record?
Answer: 104%

Question: With `CCNC(=O)Nc1cc(-c2nc(C3CCN(C(=O)n4ccnc4)CC3)cs2)c(-c2cncc(-c3n[nH]c(=O)o3)c2)cn1` [Example 213] as the molecule, how does the inhibition at 1 µM read?
Answer: 95%

Question: With `CCNC(=O)Nc1cc(-c2nc(C(F)(F)F)cs2)c(-c2cncc(-c3nnc(N4CC[C@H](O)C4)o3)c2)cn1` [Example 179] as the molecule, how does the inhibition at 1 µM read?
Answer: 101%

Question: `CCNC(=O)Nc1cc(-c2nc(C(F)(F)F)c(CNC3CCCC3)s2)c(-c2cncc(-c3nnc(C)o3)c2)cn1` [Example 57, 1-(4-(5-((cyclopentylamino)methyl)-4-(trifluoromethyl)thiazol-2-yl)-5′-(5-methyl-1,3,4-oxadiazol-2-yl)-3,3′-bipyridin-6-yl)-3-ethylurea] was tested. Which inhibition at 1 µM did it give?
Answer: 96%

Question: How did the inhibition at 1 µM turn out when `CCNC(=O)Nc1cc(-c2nc(C(F)(F)F)cs2)c(-c2cncc(-c3nnc(COC(C)=O)o3)c2)cn1` [Example 276, (5-(6′-(3-ethylureido)-4′-(4-(trifluoromethyl)thiazol-2-yl)-3,3′-bipyridin-5-yl)-1,3,4-oxadiazol-2-yl)methyl acetate] was run?
Answer: 98%

Question: With `CCNC(=O)Nc1cc(-c2nc(C(F)(F)F)cs2)c(-c2cnc(C#N)nc2)cn1` [Example 126] as the molecule, how does the inhibition at 1 µM read?
Answer: 102%

Question: `CCNC(=O)Nc1cc(-c2nc(C(F)(F)F)cs2)c(-c2ccc3nccnc3c2)cn1` [Example 13] was tested. Which inhibition at 1 µM did it give?
Answer: 103%

Question: With `CCNC(=O)Nc1cc(-c2nc(-c3cnn(C)c3)cs2)c(-c2cc(-c3nnc(C)o3)cnc2OC2CCOCC2)cn1` [Example 231, 1-ethyl-3-(5′-(5-methyl-1,3,4-oxadiazol-2-yl)-4-(4-(1-methyl-1H-pyrazol-4-yl)thiazol-2-yl)-2′-(tetrahydro-2H-pyran-4-yloxy)-3,3′-bipyridin-6-yl)urea] as the molecule, how does the inhibition at 1 µM read?
Answer: 96%

Question: With `CCNC(=O)Nc1cc(-c2nc(C(F)(F)F)cs2)c(-c2cnc(N)c(-c3nnc(C)o3)c2)cn1` [Example 258, 1-(6′-amino-5′-(5-methyl-1,3,4-oxadiazol-2-yl)-4-(4-(trifluoromethyl)thiazol-2-yl)-3,3′-bipyridin-6-yl)-3-ethylurea] as the molecule, how does the inhibition at 1 µM read?
Answer: 96%

Question: How did the inhibition at 1 µM turn out when `CCNC(=O)Nc1cc(-c2nc(C(F)(F)F)cs2)c(-c2ccc[n+]([O-])c2)cn1` [Example 15, 6′-(3-Ethylureido)-4′-(4-(trifluoromethyl)thiazol-2-yl)-3,3′-bipyridine 1-oxide] was run?
Answer: 93%

Question: For `CCNC(=O)Nc1cc(-c2nc(C(F)(F)F)cs2)c(-c2cc(-c3n[nH]c(=O)o3)cnc2OC[C@@H](C)O)cn1` [Example 225], which inhibition at 1 µM is on record?
Answer: 117%

Question: `CCNC(=O)Nc1cc(-c2nc(C(F)(F)F)cs2)c(-c2cnc(OC)c(-c3n[nH]c(=O)o3)c2)cn1` [Example 189] was tested. Which inhibition at 1 µM did it give?
Answer: 103%

Same assay, conditions: read-out: S. aureus (SAU) GyrB ATPase % Inhibition

Question: With `CCNC(=O)Nc1cc(-c2nc(C(F)(F)F)cs2)c(-c2cncc(C#N)c2)cn1` [Example 2, 1-(5′-cyano-4-(4-(trifluoromethyl)thiazol-2-yl)-3,3′-bipyridin-6-yl)-3-ethylurea] as the molecule, how does the inhibition at 1 µM read?
Answer: 88%
